In publication PMC12172326 (Journal of Biomedical Science, 2025):
Read-outs that look alike come from different tables or passages of the source.

Tests used:
[1] = target: T1, human cereblon (Homo sapiens, UniProt Q96SW2); experiment: cereblon/BRD3 binding assay (AlphaScreen in methods, FRET assay in results); details: dBET1-Cereblon-BRD3 interaction
T1 construct: purchased BPS Bioscience 79770
Experimental: Following 30 min incubation with shaking at room temperature, AlphaLISA anti-FLAG Acceptor and Alpha Glutathione Donor beads (PerkinElmer) were sequentially added and then incubated for a further 1 h at room temperature for each of the added chemicals. Alpha counts were, thereafter, recorded on a Synergy Neo2 (BioTek, Agilent, Santa Clara, CA). The relative activity of the alpha signal was calculated after subtraction of the “blank value” from all readings, and the value of vehicle group was then set as 100%.

[2] = mouse pharmacokinetics, plasma and brain, I.P.; assay type: in vivo; details: for Kp / Cmax / Tmax / AUC(0-inf) / AUC(0-t): male, C57/BL6 J, ip; for Kp: brain/plasma, from AUCinfinity values
Experimental: Mice were euthanized from 30 min to 18 h after dosing. Blood samples were collected into heparinized tubes, centrifuged (10,000g × 2 min at 4 °C), and plasma collected and immediately stored at − 80 °C. The brain was rapidly excised on wet ice; a sample of cerebral hemisphere was then removed and immediately frozen to − 80 °C.

[3] = system: mice subjected to controlled cortical impact (CCI) TBI; experiment: CCI TBI in mice: histology and GFAP/IBA1 immunohistochemistry; assay type: in vivo, mouse
Experimental: For behavioral analyses, mice were assessed for spatial memory, gait function, motor coordination/balance function and home cage activity. The animals were subsequently evaluated for cellular changes using histology and immunohistochemistry after euthanasia.
In order to develop a controlled cortical impact (CCI) model of TBI, mice were anesthetized with 2.5% 2,2,2-tribromoethanol (Avertin, 400 mg/kg, I.P.) (Sigma, St. Louis, MO, USA) and placed in a stereotaxic frame (Kopf Instruments, Tujunga, CA, USA). A 4 mm craniotomy was performed under sterile procedures; the craniotomy point was selected midway between the lambda and bregma sutures, and laterally midway between the central suture and the temporalis muscle. The skull fragment was then carefully removed without disruption of the underlying dura on the right side of the head. Before injury, the tip of the impactor was angled and kept perpendicular to the exposed cortical surface. The mouse CCI instrument consisted of an electromagnetic impactor, Impact One (Leica Biosystems Inc., Buffalo Grove, IL, USA) that allows independent manipulation of injury severity by adjusting the contact duration and velocity of a metal impactor and the depth of cortical deformation. In these experiments, the contact velocity was set at 5.0 m/s, the dwell time was set at 0.2 s, and the deformation depth was set at 1.5 mm to produce a moderate TBI. The injury site was cleaned and dried by use of sterile cotton tipped applicators prior to suturing the wound. During surgery and recovery, the body temperature of all animals was maintained at 36–37 °C by using a heating pad.
Two weeks following injury, mice were deeply anesthetized using isoflurane and underwent transcardial perfusion with 30 ml of phosphate-buffered saline (PBS) followed by 120 ml of 4% paraformaldehyde (PFA) in PBS. The brains were collected and placed into a 4% PFA solution for post-fixation overnight, and then transferred to 25% followed by 30% sucrose solution in PBS for dehydration. Sections of a region extending from the striatum to the hippocampus were cut coronally into 25 μm thickness using a cryostat (Leica Biosystems Inc., Buffalo Grove, IL, USA) and stored in a cryoprotectant solution. These sections were subjected to Giemsa (nuclear/chromosomal) staining and immunohistochemical analysis.
Brain sections obtained 2 weeks post-TBI, with a thickness of 25 µm, were placed onto slides. These sections were stained using a 10% Giemsa KH2PO4 buffered solution (pH 4.5) for 30 min at 40 °C. Following a rinse, the slides underwent de-staining, differentiation, dehydration in absolute ethanol, cleared in xylene, and then were cover-slipped. Subsequently, the slides were scanned using an All-in-One Fluorescence Microscope BZ-X710 (Keyence Corporation of America, Itasca, IL, USA). Brain image areas were quantified using ImageJ 1.52q software (National Institutes of Health, Bethesda, MD, USA). The contusion volume size and lateral ventricle size were determined as described previously, using the calculation formulas as follows:
Contusion volume size: Σ (area of contralateral hemisphere–area of ipsilateral hemisphere)/Σ area of contralateral hemisphere × 100.
Lateral ventricle size: Σ area of ipsilateral lateral ventricle/Σ area of contralateral lateral ventricle.
Nine brain sections from each mouse were quantified, spanning regions from bregma 0.86 mm to − 1.46 mm.
Immunohistochemistry for GFAP and IBA1 was performed as described previously. […]

[4] = 2 weeks after CCI, 13.23 and 26.47 mg/kg I.P. at 30 min and 24 h
[5] = both low and high doses, p < 0.0001

T1 sequence (Q96SW2 whole entry): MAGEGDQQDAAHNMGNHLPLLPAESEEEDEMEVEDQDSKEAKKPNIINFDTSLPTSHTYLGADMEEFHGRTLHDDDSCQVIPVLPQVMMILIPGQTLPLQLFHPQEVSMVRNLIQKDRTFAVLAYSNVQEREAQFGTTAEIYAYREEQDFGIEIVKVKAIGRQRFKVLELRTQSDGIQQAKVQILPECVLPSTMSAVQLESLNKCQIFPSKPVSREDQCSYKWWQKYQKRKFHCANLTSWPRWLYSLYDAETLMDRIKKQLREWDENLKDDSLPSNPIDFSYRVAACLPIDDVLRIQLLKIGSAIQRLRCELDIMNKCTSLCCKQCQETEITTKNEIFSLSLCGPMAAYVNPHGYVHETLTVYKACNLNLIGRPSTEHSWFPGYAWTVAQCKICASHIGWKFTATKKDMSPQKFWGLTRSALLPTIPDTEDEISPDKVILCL
T1 sequence (Q16531 whole entry partner): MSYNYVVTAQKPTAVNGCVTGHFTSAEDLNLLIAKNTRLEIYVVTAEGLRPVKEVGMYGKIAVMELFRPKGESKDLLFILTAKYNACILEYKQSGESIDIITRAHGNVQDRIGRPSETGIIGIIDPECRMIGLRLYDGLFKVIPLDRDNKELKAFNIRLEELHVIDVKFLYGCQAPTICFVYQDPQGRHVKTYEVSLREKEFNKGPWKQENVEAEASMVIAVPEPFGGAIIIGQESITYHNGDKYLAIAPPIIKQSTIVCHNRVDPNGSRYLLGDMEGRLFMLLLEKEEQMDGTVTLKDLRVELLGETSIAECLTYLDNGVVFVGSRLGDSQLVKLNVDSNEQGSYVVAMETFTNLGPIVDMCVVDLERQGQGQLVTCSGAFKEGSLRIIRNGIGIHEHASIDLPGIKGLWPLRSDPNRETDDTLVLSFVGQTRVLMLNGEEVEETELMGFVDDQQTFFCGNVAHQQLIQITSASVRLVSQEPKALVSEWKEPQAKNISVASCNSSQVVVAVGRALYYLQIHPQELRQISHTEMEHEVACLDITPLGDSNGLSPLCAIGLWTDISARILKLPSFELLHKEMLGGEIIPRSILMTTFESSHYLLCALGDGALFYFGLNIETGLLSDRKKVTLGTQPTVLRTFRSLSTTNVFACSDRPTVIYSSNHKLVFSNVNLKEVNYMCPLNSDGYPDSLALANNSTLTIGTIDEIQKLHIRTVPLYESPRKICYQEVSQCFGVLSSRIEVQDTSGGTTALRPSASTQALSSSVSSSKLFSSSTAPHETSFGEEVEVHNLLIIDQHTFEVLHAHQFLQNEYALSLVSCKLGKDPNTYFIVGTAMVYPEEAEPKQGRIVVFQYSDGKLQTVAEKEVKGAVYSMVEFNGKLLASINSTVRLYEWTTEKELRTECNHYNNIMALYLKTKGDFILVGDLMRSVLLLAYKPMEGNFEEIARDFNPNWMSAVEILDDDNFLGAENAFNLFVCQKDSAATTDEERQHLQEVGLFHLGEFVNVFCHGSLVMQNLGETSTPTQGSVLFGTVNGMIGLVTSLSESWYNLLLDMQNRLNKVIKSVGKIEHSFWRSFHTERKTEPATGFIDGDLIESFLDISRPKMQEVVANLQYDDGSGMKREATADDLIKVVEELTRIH
T1 sequence (Q13619 whole entry partner): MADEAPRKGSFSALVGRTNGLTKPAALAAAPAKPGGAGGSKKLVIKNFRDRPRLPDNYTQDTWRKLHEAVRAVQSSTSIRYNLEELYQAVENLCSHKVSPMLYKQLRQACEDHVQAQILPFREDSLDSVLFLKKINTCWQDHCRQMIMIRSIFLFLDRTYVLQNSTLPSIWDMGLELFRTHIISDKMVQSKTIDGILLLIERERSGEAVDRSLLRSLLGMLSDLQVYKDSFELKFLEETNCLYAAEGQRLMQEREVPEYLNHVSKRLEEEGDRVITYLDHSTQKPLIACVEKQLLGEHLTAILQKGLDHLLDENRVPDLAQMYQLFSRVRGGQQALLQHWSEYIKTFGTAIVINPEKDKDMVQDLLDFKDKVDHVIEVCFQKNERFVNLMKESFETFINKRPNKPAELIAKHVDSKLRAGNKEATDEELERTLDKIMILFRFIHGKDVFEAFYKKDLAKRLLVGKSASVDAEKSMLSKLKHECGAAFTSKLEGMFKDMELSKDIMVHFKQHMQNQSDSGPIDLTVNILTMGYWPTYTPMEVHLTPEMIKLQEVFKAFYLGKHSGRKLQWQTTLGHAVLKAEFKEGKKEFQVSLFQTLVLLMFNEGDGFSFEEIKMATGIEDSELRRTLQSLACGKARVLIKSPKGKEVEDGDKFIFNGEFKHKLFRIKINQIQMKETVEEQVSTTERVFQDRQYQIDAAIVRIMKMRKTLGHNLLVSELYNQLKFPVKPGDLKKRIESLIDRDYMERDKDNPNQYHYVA
T1 sequence (P62877 whole entry partner): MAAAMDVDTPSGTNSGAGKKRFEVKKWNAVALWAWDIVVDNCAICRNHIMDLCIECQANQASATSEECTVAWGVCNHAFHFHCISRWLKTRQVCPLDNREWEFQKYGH

Nc1cccc2c1C(=S)N(C1CCC(=O)NC1=O)C2=O (stereo not shown) [3-MP, 3-monothiopomalidomide]
IC50 [1]: 210 nM
AUCInf ([2]; brain, 2.65 mg/kg I.P.): 676.54 ng·h/g
AUCLast ([2]; brain, 2.65 mg/kg I.P.): 550.20 ng·h/g
AUCInf ([2]; brain, 26.5 mg/kg I.P.): 9052.48 ng·h/g
AUCLast ([2]; brain, 26.5 mg/kg I.P.): 8968.50 ng·h/g
Kp ([2]; 2.65 mg/kg, 2.65 mg/kg I.P., read-out: Brain/plasma ratio): 0.47
Kp ([2]; 2.65 mg/kg, across the two doses 26.47 and 2.65 mg/kg I.P., read-out: brain/plasma drug concentration ratio): 0.44 to 0.47
Kp ([2]; 26.5 mg/kg, 26.5 mg/kg I.P., read-out: Brain/plasma ratio): 0.44
Cmax ([2]; brain, 2.65 mg/kg I.P.): 454 ng/g
Tmax ([2]; brain, 2.65 mg/kg I.P.): 30 min
Cmax ([2]; brain, 26.5 mg/kg I.P.): 4230 ng/g
Tmax ([2]; brain, 26.5 mg/kg I.P.): 60 min
AUC(0-inf) ([2]; plasma, 2.65 mg/kg I.P.): 1440 ng·h/mL
AUC(0-t) ([2]; plasma, 2.65 mg/kg I.P.): 1410 ng·h/mL
Cmax ([2]; plasma, 2.65 mg/kg I.P.): 978 ng/mL
Tmax ([2]; plasma, 2.65 mg/kg I.P.): 30 min
AUC(0-inf) ([2]; plasma, 26.5 mg/kg I.P.): 20800 ng·h/mL
AUC(0-t) ([2]; plasma, 26.5 mg/kg I.P.): 20700 ng·h/mL
Cmax ([2]; plasma, 26.5 mg/kg I.P.): 9580 ng/mL
Tmax ([2]; plasma, 26.5 mg/kg I.P.): 60 min
contusion volume (loss of cortical tissue) [3, 4]: unchanged
lateral ventricle enlargement [3, 4]: unchanged
TBI-induced morphological alterations in astrocytes (surface area, cell volume, branch area, branch length, number of branches) ([3]; both low and high doses, ipsilateral (p < 0.0001) and contralateral cortex): significantly ameliorated
CCI-induced microglial morphological alterations (ramification index, branches, branch length, spanned area, junctions, endpoints) [3, 5]: partially but significantly returned
astrocyte complexity (total Sholl intersections) [3, 5]: significantly mitigated
